Measurements taken from US20060111368A1, “Phosphodiesterase inhibitor” (Kyowa Hakko Kogyo Co., Ltd., priority 2002, published 2006).
Structures can show the parent of a compound that is named as a salt. Where two headings read alike, the source gives them in different places.

Experiments:
PDE10A = target: T1, PDE10A (Homo sapiens, UniProt Q9Y233); assay: Activity of inhibiting PDE10A activity ([3H]cAMP decomposition inhibiting test); format: biochemical; settings: for inhibition at 1 µM: read-out: [3H] cAMP decomposition inhibition rate (%); for IC50: read-out: IC50 (concentration at which to inhibit [3H]cAMP decomposition by 50%)
T1 construct: made in house; host or cells: Sf9 insect cells (baculovirus, pVL1393)
T1 sequence (Q9Y233 340-1055): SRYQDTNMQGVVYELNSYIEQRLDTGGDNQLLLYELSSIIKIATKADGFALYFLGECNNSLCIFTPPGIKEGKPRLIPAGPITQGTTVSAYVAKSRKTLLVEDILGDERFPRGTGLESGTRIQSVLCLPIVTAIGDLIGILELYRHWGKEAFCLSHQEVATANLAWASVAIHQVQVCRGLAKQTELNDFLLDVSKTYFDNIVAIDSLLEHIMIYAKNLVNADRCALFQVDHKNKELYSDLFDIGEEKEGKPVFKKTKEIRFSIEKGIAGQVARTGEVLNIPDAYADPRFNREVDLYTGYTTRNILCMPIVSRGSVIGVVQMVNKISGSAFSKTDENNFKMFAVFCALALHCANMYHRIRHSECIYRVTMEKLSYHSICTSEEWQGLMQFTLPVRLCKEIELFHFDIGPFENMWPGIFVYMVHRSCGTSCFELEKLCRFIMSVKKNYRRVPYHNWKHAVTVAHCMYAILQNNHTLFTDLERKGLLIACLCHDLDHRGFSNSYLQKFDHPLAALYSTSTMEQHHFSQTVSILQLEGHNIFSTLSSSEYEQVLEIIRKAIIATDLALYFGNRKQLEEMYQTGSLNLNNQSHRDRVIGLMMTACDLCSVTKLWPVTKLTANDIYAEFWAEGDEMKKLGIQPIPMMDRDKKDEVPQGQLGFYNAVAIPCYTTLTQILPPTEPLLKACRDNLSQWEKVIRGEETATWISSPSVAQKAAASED
Experimental: Activity of Inhibiting PDE10A Activity (^3H]cAMP Decomposition Inhibiting Test)
PCR was performed using DNAs having base sequences described in SEQ ID NO. 1 and SEQ ID NO. 2 as primers and human kidney cDNA as a template to prepare a plasmid containing amplified fragments. The plasmid was cleaved with restriction endonucleases Pst I and Xba I to obtain a Pst I-Xba I fragment of 0.7 kb.
Meanwhile, Est clone (Cosmo Bio, Tokyo) of GenBank, ACCESSION WO 4835 was cleaved with restriction endonucleases Kpn I and Pst I to obtain a Kpn I-Pst I fragment of 1.5 kb.
The resulting Pst I-Xba I fragment of 0.7 kb and Kpn I-Pst I fragment of 1.5 kb were subcloned in a Kpn I-Xba I site of pBluescript II KS(−) (STRATAGENE, La Jolla, Calif., USA),to construct a plasmid having a cDNA fragment completely including a catalyst region of PDE10A. Subsequently, the plasmid was cleaved with restriction endonucleases Kpn I and Not I to obtain a Kpn I-Not I fragment of 2.2 kb.
The resulting Kpn I-Not I fragment of 2.2 kb and a linker having a BamH I-Kpn I cleavage surface prepared by synthetic DNA having base sequences described in SEQ ID NOS. 3 and 4 were subcloned in a BamH I-Not I site of pVL1393 (PharMingen, San Diego, Calif., USA) to obtain a plasmid for preparation of Baculovirus. The plasmid contains a DNA encoding a peptide in which methionine, FLAG tag and a peptide having a 64th to 779th amino acid sequence of PDE10A [GenBank, ACCESSION NP 006652: Gene, vol. 234, p. 109 (1999), J. Biol. Chem., vol. 274, p. 18438 (1999)] are bound in the order.
The above gene recombinational manipulation was performed according to the method described in Molecular Cloning, 2nd edition, Cold Spring Harbor Laboratory Press, New York (1989).
The expression of PDE10A was conducted according to the Baculovirus expression vector system manual (PharMingen) using insect cells. As insect cells, Sf9 cells (Asahi Technoglass, Tokyo) were used. Sf9 cells were infected with a supernatant (co-transfection sup) containing PDE10A expression virus prepared according to the manual, and cultured at 27° C. for 4 days. The cells were recovered, washed with a phosphate-buffered saline (PBS), and then suspended in an extraction solution [20 mmol/L Tris-acetate (pH 7.5), 2 mmol/L MgCl2, 1 mmol/L dithiothreitol, 1 mmol/L ethylenediaminetetraacetic acid (EDTA), 0.25 mol/L sucrose, 250 unit/mL aprotinin, 40 μg/mL phenylmethylsulfonyl fluoride, and 1 μg/mL pepstatin A]. The cells were disrupted in ice with the maximum output under conditions of 5 seconds and five times using an ultrasonic disruption machine (TOMY model UR-200R, TOMY, Tokyo). A soluble fraction was obtained by centrifugation under 10,000 rpm of the fraction at 4° C. for 30 minutes, and the resulting soluble fraction was used for measuring the PDE activity.
The PDE activity was measured according to the method described in Methods Enzymol., vol. 159, p. 457 (1988).
Using [^3H]cAMP as a substrate, an enzyme reaction was conducted in a reaction solution containing 300 μL of 50 mmol/L N,N-bis (2-hydroxyethyl)-2-aminoethanesulfonic acid (pH 7.2), 1 mmol/L MgCl2 and 0.1 mmol/L ethylene glycol-bis (β-aminoethyl ether)-N,N,N′,N′-tetraacetic acid: EGTA). The concentration of the substrate was 0.2 μmol/L. To 95 μL of an enzyme dilute solution were added 5 μL of a test compound (DMSO solution) and 200 μL of a substrate solution. The mixture was incubated at 30° C. for 20 minutes, and then HCl was added to stop the reaction. The reaction product (5′-AMP) was converted to adenosine using 5′-nucleotidase, and separated the unreacted product from the reactant by DEAE-Sephadex A-25 column (Amersham Pharmacia Biotech, Uppsala, Sweden). The elute was moved to scintillation vials, 6 mL of Ultima Gold (Packard Instrument, Meriden, Conn., USA) was added, and the radioactivity was measured for 2 minutes using a liquid scintillation counter (Beckman LS6500, Beckman, Tokyo),. […]

[1] = Test compound concentration 1 μmol/L, substrate [3H]cAMP 0.2 μmol/L

| Structure (SMILES) | melting point [°C] | inhibition at 1 µM (PDE10A; [1]) [%] | IC50 (PDE10A; substrate [3H]cAMP 0.2 μmol/L) [nM] | inhibition at 1 µM (PDE10A) [%] |
| --- | --- | --- | --- | --- |
| Cc1c(-c2ccc(Br)cc2)nc2ccc(F)cc2c1C(=O)O | > 300 | – | – | – |
| COc1ccc(F)cc1-c1ccc(-c2nc3ccc(F)cc3c(C(=O)O)c2C)cc1 | > 300 | – | – | – |
| COc1ccc(-c2ccc(-c3nc4ccc(F)cc4c(C(=O)O)c3C)cc2)c(OC)c1 | > 300 | – | – | – |
| Cc1c(-c2ccc(-c3ccccc3-c3ccccc3)cc2)nc2ccc(F)cc2c1N | 227 to 229 | – | – | – |
| Cc1c(-c2ccc(-c3ccccc3CNCCO)cc2)nc2ccc(F)cc2c1CO (as salt: hydrochloride) | 203 to 205 | – | – | – |
| Cc1c(-c2ccc(-c3ccccc3CN3CCOCC3)cc2)nc2ccc(F)cc2c1CO (as salt: hydrochloride) [Compound 12, 6-Fluoro-4-hydroxymethyl-3-methyl-2-(2′-morpholinomethylbiphenyl-4-yl)quinoline dihydrochloride] | 190 to 192 | – | – | – |
| Cc1c(-c2ccc(-c3ccccc3-c3ccccc3)cc2)nc2ccc(F)cc2c1CO [Compound 1, 6-Fluoro-4-hydroxymethyl-3-methyl-2-([1,1′:2′,1″-terphenyl]-4-yl)quinoline] | 121 to 123 | 99 | 4.2 | – |
| Cc1c(-c2ccc(-c3ccccc3CN3CCN(c4ccccc4)CC3)cc2)nc2ccc(F)cc2c1CO [Compound 11, 6-Fluoro-4-hydroxymethyl-3-methyl-2-[2′-(4-phenylpiperazin-1-yl)methylbiphenyl-4-yl]quinoline] | 154 to 156 | 90 | 173 | – |
| Cc1c(-c2ccc(-c3ccccc3CNc3ccccc3)cc2)nc2ccc(F)cc2c1CO [Compound 13, 6-Fluoro-4-hydroxymethyl-3-methyl-2-[2′-(phenylamino)methylbiphenyl-4-yl]quinoline] | 201 to 202 | 90 | 103 | – |
| COC(=O)c1c(C)c(-c2ccc(-c3ccccc3-c3ccccc3)cc2)nc2ccc(F)cc12 [Compound 15, Methyl 6-fluoro-3-methyl-2-([1,1′:2′,1″-terphenyl]-4-yl)quinoline-4-carboxylate] | 164 to 165 | – | – | – |
| CC(=O)c1c(C)c(-c2ccc(-c3ccccc3-c3ccccc3)cc2)nc2ccc(F)cc12 [Compound 16, 4-Acetyl-6-fluoro-3-methyl-2-([1,1′:2′,11″-terphenyl]-4-yl)quinoline] | – | – | – | 80 |
| Cc1c(-c2ccc(-c3ccccc3-c3ccccc3)cc2)nc2ccc(F)cc2c1C#N [Compound 17, 6-Fluoro-3-methyl-2-([1,1′;2′,1″-terphenyl]-4-yl)quinoline-4-carbonitrile] | 153 to 155 | 70 | 373 | – |
| Cc1c(-c2ccc(-c3ccccc3-c3ccccc3)cc2)nc2ccc(F)cc2c1C [Compound 18, 3,4-Dimethyl-6-fluoro-2-([1,1′:2′,1″-terphenyl]-4-yl)quinoline] | 194 to 195 | 97 | 4.8 | – |
| COC(=O)c1c(C)c(N2CCN(c3ccccc3OC)CC2)nc2ccc(F)cc12 [Compound 19, Methyl 6-Fluoro-2-[4-(2-methoxyphenyl)piperazin-1-yl]-3-methylquinoline-4-carboxylate] | 128 to 129 | – | – | – |
| COc1ccccc1N1CCN(c2nc3ccc(F)cc3c(CO)c2C)CC1 [Compound 20, 6-Fluoro-4-hydroxymethyl-2-[4-(2-methoxyphenyl)piperazin-1-yl]-3-methylquinoline] | 190 to 191 | – | – | – |
| Cc1c(-c2ccc(Br)cc2)nc2ccc(F)cc2c1CO [Compound 21, 2-(4-Bromophenyl)-6-fluoro-4-hydroxymethyl-3-methylquinoline] | 222 to 240 | – | – | – |
| Cc1c(-c2ccc(-c3ccccc3-c3ccccc3)cc2)nc2ccc(F)cc2c1C(=O)O [Compound C, 6-Fluoro-3-methyl-2-([1,1′:2′,1″-terphenyl)-4-yl)quinoline-4-carboxylic acid] | > 300 | – | 0.9 | 99 |
| Cc1c(-c2ccc(-c3ccccc3C=O)cc2)nc2ccc(F)cc2c1C(=O)O [Compound J, 6-Fluoro-2-(2′-formylbiphenyl-4-yl)-3-methylquinoline-4-carboxylic acid] | > 300 | 99 | 16 | – |
| CCOc1ccccc1-c1ccc(-c2nc3ccc(F)cc3c(C(=O)O)c2C)cc1 [I, 2-(2′-Ethoxybiphenyl-4-yl)-6-fluoro-3-methylquinoline-4-carboxylic acid] | – | 99 | 5.5 | – |

Now from value to molecule, other results behind:

| melting point [°C] | inhibition at 1 µM (PDE10A; [1]) [%] | IC50 (PDE10A; substrate [3H]cAMP 0.2 μmol/L) [nM] | Structure (SMILES) | inhibition at 1 µM (PDE10A) [%] |
| --- | --- | --- | --- | --- |
| 178 to 179 | 97 | 66 | COc1ccccc1-c1ccc(-c2nc3ccc(F)cc3c(CO)c2C)cc1 [Compound 2, 6-Fluoro-4-hydroxymethyl-2-(2′-methoxybiphenyl-4-yl)-3-methylquinoline] | – |
| 140 to 143 | 97 | 76 | CCOc1ccccc1-c1ccc(-c2nc3ccc(F)cc3c(CO)c2C)cc1 [Compound 3, 2-(21-Ethoxybiphenyl-4-yl)-6-fluoro-4-hydroxymethyl-3-methylquinoline] | – |
| 199 to 200 | 83 | – | CCOc1cccc(-c2ccc(-c3nc4ccc(F)cc4c(CO)c3C)cc2)c1 [Compound 4, 2-(31-Ethoxybiphenyl-4-yl)-6-fluoro-4-hydroxymethyl-3-methylquinoline] | – |
| 211 to 212 | – | – | CCOc1ccc(-c2ccc(-c3nc4ccc(F)cc4c(CO)c3C)cc2)cc1 [Compound 5, 2-(4′-Ethoxybiphenyl-4-yl)-6-fluoro-4-hydroxymethyl-3-methylquinoline] | – |
| – | 91 | 98 | Cc1c(-c2ccc(-c3ccccc3F)cc2)nc2ccc(F)cc2c1CO [Compound 6, 6-Fluoro-2-(2′-fluorobiphenyl-4-yl)-4-hydroxymethyl-3-methylquinoline] | – |
| 202 to 203 | 97 | 34 | COc1ccc(F)cc1-c1ccc(-c2nc3ccc(F)cc3c(CO)c2C)cc1 [Compound 7, 6-Fluoro-2-(5′-fluoro-2′-methoxybiphenyl-4-yl)-4-hydroxymethyl-3-methylquinoline] | – |
| 205 to 207 | 68 | – | COc1ccc(-c2ccc(-c3nc4ccc(F)cc4c(CO)c3C)cc2)c(OC)c1 [Compound 8, 2-(2′,4′-dimethoxybiphenyl-4-yl)-6-fluoro-4-hydroxym ethyl-3-methylquinoline] | – |
| 192 to 194 | – | – | Cc1c(-c2ccc(-c3ccccc3C=O)cc2)nc2ccc(F)cc2c1CO [Compound 9] | – |
| 193 to 195 | – | – | CNCc1ccccc1-c1ccc(-c2nc3ccc(F)cc3c(CO)c2C)cc1 [Compound 10, 6-Fluoro-4-hydroxymethyl-3-methyl-2-[2′-(methylamino)methylbiphenyl-4-yl]quinoline] | – |
